Measured values: patent US12215093B2, “Bicyclic carboxamides and methods of use thereof” (Tempest Therapeutics, Inc., priority 2018, dated 2025)

Assays:
EP4 = biological target: T1, EP4 (Homo sapiens, UniProt P35408); assay: Functional calcium flux assay, EP4; type: cell-based; conditions: stably transfected HEK293 cells; PGE2 10 nM; read-out: EP4 Ca2+-flux assay IC50
T1 construct: host or cells: stably transfected HEK293 cells co-expressing a promiscuous G protein and a clytin variant
Description: (§1) Each receptor subtype has an additional promiscuous G protein added in order to couple the aforementioned receptor to the calcium signaling pathway. The parental cell line used also expresses a novel variant of clytin, a calcium-activated photo-protein, to enable sensitive luminescent detection. Briefly, cells were plated at 50,000 cells-per-well in black, clear bottom 96-well plates. The plated cells were allowed to sit at room temperature for 30 min prior to transferring to a humidified, 37° C., 5% CO2 incubator for 18 to 24 h. Assay buffer (HBSS with 20 mM HEPES) and loading buffer (assay buffer plus 10 μM coelenterazine) were prepared on the day of the assay. Assays were performed by aspirating media from the assay plate and washing once with assay buffer, then replacing with loading buffer and allowing the cells to incubate for 1.5 h at room temperature. Compounds were prepared in assay buffer at a 3× final concentration in non-binding plates. Compounds were added to the cell plates and incubated for 30 min at room temperature. The prostanoid receptor ligand PGE2 was prepared at a 4× dilution ratio for a final concentration of 10 nM. Plates were run on a Flexstation™ using a 100 ms integration luminescence protocol for a total of 60 sec with ligand addition at 15 sec. Data were obtained from relative light units as measured by area under the curve.

EP2 = EP2 (Homo sapiens, UniProt P43116); assay: cell-based;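 further: functional calcium flux assay in stably transfected HEK293 cells expressing EP2 coupled via a promiscuous G protein, clytin luminescence read as area under the curve, 30 min compound preincubation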
Chain of EP2 (P43116 whole entry): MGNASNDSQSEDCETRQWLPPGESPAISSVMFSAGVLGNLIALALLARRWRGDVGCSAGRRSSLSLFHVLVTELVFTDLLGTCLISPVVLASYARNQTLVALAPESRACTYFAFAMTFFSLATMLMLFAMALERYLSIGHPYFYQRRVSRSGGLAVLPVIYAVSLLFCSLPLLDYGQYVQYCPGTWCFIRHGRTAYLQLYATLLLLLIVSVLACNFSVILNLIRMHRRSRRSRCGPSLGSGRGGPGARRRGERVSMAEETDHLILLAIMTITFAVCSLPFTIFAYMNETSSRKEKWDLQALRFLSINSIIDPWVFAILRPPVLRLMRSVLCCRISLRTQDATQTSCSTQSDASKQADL
Description: as §1

T1 sequence (P35408 whole entry): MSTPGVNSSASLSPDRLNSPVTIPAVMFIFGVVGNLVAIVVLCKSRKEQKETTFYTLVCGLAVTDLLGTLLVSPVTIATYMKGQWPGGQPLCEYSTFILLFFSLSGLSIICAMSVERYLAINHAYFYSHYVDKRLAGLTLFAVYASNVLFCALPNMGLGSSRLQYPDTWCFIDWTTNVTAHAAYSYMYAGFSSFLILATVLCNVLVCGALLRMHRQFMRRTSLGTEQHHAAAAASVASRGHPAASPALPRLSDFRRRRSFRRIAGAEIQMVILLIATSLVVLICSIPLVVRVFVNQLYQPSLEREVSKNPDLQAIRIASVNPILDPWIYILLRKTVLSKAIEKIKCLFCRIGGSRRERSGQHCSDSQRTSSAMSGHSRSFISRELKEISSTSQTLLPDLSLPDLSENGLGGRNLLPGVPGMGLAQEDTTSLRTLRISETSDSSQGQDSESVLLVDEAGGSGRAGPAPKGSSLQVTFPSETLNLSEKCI

SMILES	IC50 (EP4) [µM]	IC50 (EP2) [µM]
CC(C)(C)c1ccc(Cn2ccc3c(C#N)ccc(C(=O)NC4CC5(C4)CC(C(=O)O)C5)c32)cc1 (racemic) [Example 27, (racemic)-6-(1-(4-(tert-Butyl)benzyl)-4-cyano-1H-indole-7-carboxamido)spiro[3.3]heptane-2-carboxylic acid]	< 0.001	0.045
CS(=O)(=O)NC(=O)C1CC2(CC(NC(=O)c3ccc(F)c4ccn(Cc5ccc(OC(F)(F)F)cc5)c34)C2)C1 (stereo not shown) [Example 111, (Sa)-4-Fluoro-N-(6-((methylsulfonyl)carbamoyl)spiro[3.3]heptan-2-yl)-1-(4-(trifluoromethoxy)benzyl)-1H-indole-7-carboxamide]	0.0012	0.038
CNC(=O)c1cc(-c2ccc(Cn3ncc4c(Cl)ccc(C(=O)NC5CC6(C5)CC(F)(C(=O)O)C6)c43)cc2)ccn1 (racemic) [Example 102, (racemic)-6-(4-chloro-1-(4-(2-(methylcarbamoyl)pyridin-4-yl)benzyl)-1H-indazole-7-carboxamido)-2-fluorospiro[3.3]heptane-2-carboxylic acid]	0.0089	0.081
O=C(O)CC1CC2(C1)CC(NC(=O)c1cc(F)cc3cnn(Cc4ccc(-c5ccccc5)cc4)c13)C2 (racemic) [Example 107, (racemic)-2-(6-(1-([1,1′-biphenyl]-4-ylmethyl)-5-fluoro-1H-indazole-7-carboxamido)spiro[3.3]heptan-2-yl)acetic acid]	< 0.001	0.033
COc1ccc(-c2ccc(Cn3ccc4c(F)ccc(C(=O)NC5CC6(C5)CC(C(=O)O)C6)c43)cc2)cc1Cl (stereo not shown) [Example 25, (Sa)-6-(1-((3′-Chloro-4′-methoxy-[1,1′-biphenyl]-4-yl)methyl)-4-fluoro-1H-indole-7-carboxamido)spiro[3.3]heptane-2-carboxylic acid]	< 0.001	< 0.025
CCOc1cccc(-c2ccc(Cn3ccc4c(F)ccc(C(=O)NC5CC6(C5)CC(C(=O)O)C6)c43)cc2)c1 (stereo not shown) [Example 54, (Sa)-6-(1-((3’-ethoxy-[1,1′-biphenyl]-4-yl)methyl)-4-fluoro-1H-indole-7-carboxamido)spiro[3.3]heptane-2-carboxylic acid]	< 0.001	0.043
COc1cccc(-c2ccc(Cn3ccc4c(F)ccc(C(=O)NC5CC6(CC(CC(=O)O)C6)C5)c43)cc2)n1 (stereo not shown) [Example 150, (Ra)-2-(6-(4-fluoro-1-(4-(6-methoxypyridin-2-yl)benzyl)-1H-indole-7-carboxamido)spiro[3.3]heptan-2-yl)acetic acid]	< 0.001	0.061
COc1ccc2cc(-c3ccc(Cn4ccc5c(F)ccc(C(=O)NC6CC7(CC(CC(=O)O)C7)C6)c54)cc3)ccc2n1 (single isomer, unassigned) [Example 137, (Sa)-2-(6-(4-Fluoro-1-(4-(2-methoxyquinolin-6-yl)benzyl)-1H-indole-7-carboxamido)spiro[3.3]heptan-2-yl)acetic acid]	0.0032	0.064
CCOc1cccc(-c2ccc(Cn3ncc4c(Cl)ccc(C(=O)NC5CC6(C5)CC(C(=O)O)C6)c43)cc2)n1 (stereo not shown) [Example 83, (Sa)-6-(4-Chloro-1-(4-(6-ethoxypyridin-2-yl)benzyl)-1H-indazole-7-carboxamido)spiro[3.3]heptane-2-carboxylic acid]	< 0.001	< 0.025
COc1ccccc1-c1ccc(Cn2ccc3c(F)ccc(C(=O)NC4CC5(C4)CC(C(=O)O)C5)c32)cc1 (racemic) [Example 18, (racemic)-6-(4-fluoro-1-((2′-methoxy-[1,1′-biphenyl]-4-yl)methyl)-1H-indole-7-carboxamido)spiro[3.3]heptane-2-carboxylic acid]	< 0.001	0.034
COc1ccc(-c2ccc(Cn3ccc4c(F)ccc(C(=O)NC5CC6(C5)CC(C(=O)O)C6)c43)cc2)cc1 (racemic) [Example 12, (racemic)-6-(4-fluoro-1-((4′-methoxy-[1,1′-biphenyl]-4-yl)methyl)-1H-indole-7-carboxamido)spiro[3.3]heptane-2-carboxylic acid]	< 0.001	< 0.025
O=C(NC1CC2(C1)CC(C(=O)O)C2)c1ccc(F)c2ccn(Cc3ccc4cc(F)ccc4c3)c12 (racemic) [Example 5, (racemic)-6-(4-fluoro-1-((6-fluoronaphthalen-2-yl)methyl)-1H-indole-7-carboxamido)spiro[3.3]heptane-2-carboxylic acid]	< 0.001	< 0.025
N#Cc1ccc(-c2ccc(Cn3ccc4c(F)ccc(C(=O)NC5CC6(C5)CC(C(=O)O)C6)c43)cc2)cc1 (racemic) [Example 13, (racemic)-6-(1-((4′-cyano-[1,1′-biphenyl]-4-yl)methyl)-4-fluoro-1H-indole-7-carboxamido)spiro[3.3]heptane-2-carboxylic acid]	< 0.001	0.039
O=C(NC1CC2(C1)CC(C(=O)O)C2)c1ccc(F)c2ccn(Cc3ccc(-c4ccc(OC5COC5)c(Cl)c4)cc3)c12 (racemic) [Example 21, (racemic)-6-(1-((3′-Chloro-4′-(oxetan-3-yloxy)-[1,1′-biphenyl]-4-yl)methyl)-4-fluoro-1H-indole-7-carboxamido)spiro[3.3]heptane-2-carboxylic acid]	0.001	0.051
COc1cccc(-c2ccc(Cn3ccc4c(OC)ncc(C(=O)NC5CC6(C5)CC(C(=O)O)C6)c43)cc2)n1 (stereo not shown) [Example 92, (Sa)-6-(4-Methoxy-1-(4-(6-methoxypyridin-2-yl)benzyl)-1H-pyrrolo[3,2-c]pyridine-7-carboxamido)spiro[3.3]heptane-2-carboxylic acid]	< 0.001	< 0.025
[2H]C([2H])([2H])Oc1cccc(-c2ccc(Cn3ccc4c(F)ccc(C(=O)NC5CC6(C5)CC(C(=O)O)C6)c43)cc2)c1 (stereo not shown) [Example 52, (Sa)-6-(4-fluoro-1-((3’-methoxy-d3-[1,1′-biphenyl]-4-yl)methy1)-1H-indole-7-carboxamido)spiro[3.3]heptane-2-carboxylic acid]	< 0.001	< 0.025
[2H]C([2H])([2H])C([2H])(c1ccc(-c2ccccc2)cc1)n1ncc2c(Cl)ccc(C(=O)NC3CC4(C3)CC(C(=O)O)C4)c21 (single isomer, unassigned) [Example 167, (Sa)-6-(1-((R) or (S)-1-([1,1′-Biphenyl]-4-yl)ethyl-1,2,2,2-d4)-4-chloro-1H-indazole-7-carboxamido)spiro[3.3]heptane-2-carboxylic acid]	0.0035	0.041
COc1cc(C#N)cc(-c2ccc(Cn3ccc4c(F)ccc(C(=O)NC5CC6(C5)CC(C(=O)O)C6)c43)cc2)c1 (racemic) [Example 20, (racemic)-6-(1-((3′-cyano-5′-methoxy-[1,1′-biphenyl]-4-yl)methyl)-4-fluoro-1H-indole-7-carboxamido)spiro[3.3]heptane-2-carboxylic acid]	< 0.001	< 0.025
CCOc1cccc(-c2ccc(C(C)n3ncc4cccc(C(=O)NC5CC6(C5)CC(C(=O)O)C6)c43)cc2)n1 (racemic) [Example 133, (Sa)-6-(1-((racemic)-1-(4-(6-Ethoxypyridin-2-yl)phenyl)-ethyl)-1H-indazole-7-carboxamido)spiro[3.3]heptane-2-carboxylic acid]	< 0.001	0.065
CC(c1ccc(-c2ccccc2)cc1)n1ncc2c(Cl)ccc(C(=O)NC3CC4(C3)CC(C(=O)O)C4)c21 (single isomer, unassigned) [Example 130, (Sa)-6-(1-((R) or (S)-1-([1,1′-biphenyl]-4-yl)-ethyl)-4-chloro-1H-indazole-7-carboxamido)spiro[3.3]heptane-2-carboxylic acid]	< 0.001	< 0.025
COc1cc(-c2ccc(Cn3ncc4cc(Cl)cc(C(=O)NC5CC6(C5)CC(C(=O)O)C6)c43)cc2)ccn1 (stereo not shown) [Example 135, (Sa)-6-(5-Chloro-1-(4-(2-methoxypyridin-4-yl)benzyl)-1H-indazole-7-carboxamido)spiro[3.3]heptane-2-carboxylic acid]	< 0.001	< 0.025
[2H]C([2H])([2H])C([2H])(c1ccc(-c2ccccc2)cc1)n1ncc2c(Cl)ccc(C(=O)NC3CC4(C3)CC(C(=O)O)C4)c21 (racemic) [Example 166, (Sa)-6-(1-((racemic)-1-([1,1′-Biphenyl]-4-yl)ethyl-1,2,2,2-d4)-4-chloro-1H-indazole-7-carboxamido)spiro[3.3]heptane-2-carboxylic acid]	0.0039	0.026
[2H]C([2H])([2H])C([2H])(c1ccc(-c2ccccc2)cc1)n1ncc2cccc(C(=O)NC3CC4(C3)CC(C(=O)O)C4)c21 (racemic) [Example 168, (Sa)-6-(1-((racemic)-1-([1,1′-Biphenyl]-4-yl)ethyl-1,2,2,2-d4)-1H-indazole-7-carboxamido)spiro[3.3]heptane-2-carboxylic acid]	0.0012	0.028
O=C(NC1CC2(C1)CC(C(=O)O)C2)c1ccc(F)c2ccn(Cc3ccc(-c4ccccc4)c(F)c3)c12 (stereo not shown) [Example 65, (Sa)-6-(4-Fluoro-1-((2-fluoro-[1,1′-biphenyl]-4-yl)methyl)-1H-indole-7-carboxamido)spiro[3.3]heptane-2-carboxylic acid]	0.003	0.043
CCOc1cc(-c2ccc(Cn3ncc4cc(Cl)cc(C(=O)NC5CC6(C5)CC(C(=O)O)C6)c43)cc2)ccn1 (stereo not shown) [Example 136, (Sa)-6-(5-chloro-1-(4-(2-ethoxypyridin-4-yl)benzyl)-1H-indazole-7-carboxamido)spiro[3.3]heptane-2-carboxylic acid]	< 0.001	< 0.025
CC(c1ccc(-c2ccccc2)cc1)n1ncc2c(Cl)ccc(C(=O)NC3CC4(C3)CC(C(=O)O)C4)c21 (racemic) [Example 121, (Sa)-6-(1-((racemic)-1-([1,1′-biphenyl]-4-yl)-ethyl)-4-chloro-1H-indazole-7-carboxamido)spiro[3.3]heptane-2-carboxylic acid]	0.0066	< 0.025
